# In PMC8561388 (mBio, 2021):
# Where two headings read alike, the source gives them in different places.
# Experiments:
# [1] = system: attenuated OP-CDV strain (OP^neon/nLucP); assay: microbe, parasite or virus in culture; type: cell-based, canine distemper virus
# [2] = system: wild-type A75/17-CDV (A75^neon/nLucP); assay: microbe, parasite or virus in culture; type: cell-based; conditions: canine distemper virus, Vero-cSLAM cells
# rNiV-EGFP = assay: microbe, parasite or virus in culture; type: cell-based, Nipah virus; conditions: Henipavirus nipahense
# PIV-5^neon/nLucP = assay: microbe, parasite or virus in culture; type: cell-based, parainfluenza virus type 5; conditions: PIV-5, Vero cells
# RSV-GFP = assay: microbe, parasite or virus in culture; type: cell-based, respiratory syncytial virus; conditions: HEp-2 cells, plaque reduction
# [3] = Cell viability (cytotoxicity), Vero; type: cell-based; conditions: monkey, Vero cells
# [4] = Cell viability (cytotoxicity), MDCK; type: cell-based, Canine; conditions: dog, MDCK cells
# [5] = Cell viability (cytotoxicity), P114; type: cell-based, Canine; conditions: dog, P114 cells
# [6] = Cell viability (cytotoxicity), PGSA745-EFNB2; type: cell-based; conditions: hamster, PGSA745-EFNB2 cells
# [7] = Cell viability (cytotoxicity), HEp-2; type: cell-based; conditions: human, HEp-2 cells
# Vero-cSLAM cells [8] = conditions: 42 h incubation, flow cytometry
# in vitro = conditions: monkey, Vero-cSLAM cells
# CDV polymerase complex = CDV polymerase complex (Canine distemper virus, UniProt P06940+P24658); assay: cell-based; type: cell-based; conditions: for effect on minigenome luciferase activity (RdRp complex activity): compound 1 10 μM, compound 3 50 μM, Bsr-T7 cells, 48 h
# virions (OP^neon/nLucP) = assay: Virucidal effect; type: cell-based, canine distemper virus; conditions: 1 h at 4°C, then dilution to noninhibitory concentration, Vero-cSLAM
# Procedure: The virus-compound mixtures were then diluted 10-fold, thereby reaching noninhibitory concentrations. […] Upon inoculation of the diluted mixtures in Vero-cSLAM cells, the viral infectivity was assessed.
# OP^neon/nLucP (MOI of 4) was added in a plate containing or not each compound and incubated for 60 min at 4°C. Afterward, the virus and compound mixture was diluted to a noninhibitory drug concentration and added to a monolayer of Vero-cSLAM cells. After 24 h, luminescence was measured using the Nano-Glo live cell assay system (Promega).
# [9] = target: membrane-anchored OP-CDV F-protein (Canine distemper virus, UniProt P12569); assay: Heat shock resistance of prefusion F conformation (flow cytometry); conditions: heat shock 65°C; compound 3 75 μM, compound 1 10 μM
# [10] = system: wild-type A75/17-CDV strain (A75^neon); type: cell-based, canine distemper virus
# MeV (Edm) = assay: microbe, parasite or virus in culture; type: cell-based; conditions: Measles morbillivirus
# MeV (ICB) = assay: microbe, parasite or virus in culture; type: cell-based; conditions: Measles morbillivirus, NCI-H358 cells
# VSV = type: cell-based, vesicular stomatitis virus; conditions: Vero cells
# [11] = Cell viability (cytotoxicity), Vero-cNectin-4; type: cell-based; conditions: monkey, Vero-cNectin-4 cells
# [12] = Cell viability (cytotoxicity), Bsr-T7; type: cell-based; conditions: hamster, Bsr-T7 cells
# [13] = Cell viability (cytotoxicity), NCI-H358; type: cell-based; conditions: human, NCI-H358 cells
# MeV polymerase complex = type: cell-based, measles virus
# OP^neon/nLucP = assay: Time-of-addition assay; type: cell-based, canine distemper virus; conditions: 10 μM, compounds added after 20 h of infection, readout 48 h
# Procedure: To this end, Vero-cSLAM cells were treated with compound 1 at the time of infection or at distinct time points postinfection. In this set of experiments, two previously characterized compounds (compound 3 and ERDRP-0519 [Fig. 1A]) targeting two distinct stages of the viral life cycle (entry and replication, respectively) were added as controls.
# Vero-cSLAM cells (96-well plate format) were infected with OP^neon/nLucP at an MOI of 0.04, in the presence of compound 3G (final concentration, 30 μM), ERDRP-0519 (final concentration, 10 μM), or ZHAWO9045 (final concentration 10 μM) added at the indicated time points. Control cells were infected in the presence of equal amounts of DMSO. At 48 h postinfection, luminescence was measured using the Nano-Glo live cell assay system (Promega).
# [14] = system: CDV-induced membrane fusion between effector and target cells; assay: Quantitative cell-to-cell fusion assay; type: cell-based; conditions: exclusively at high concentrations
# Text: It is assumed that small molecules at high concentrations may lead to aggregation effects or nonspecific binding.
# Measurement of membrane fusion between effector and target cells in presence of increasing concentration of either compound 3 or 1. […] Download FIG S4, TIF file, 3.0 MB.
# Vero-cSLAM cells [15] = assay: Cell viability (cytotoxicity), Vero-cSLAM
# [16] = canine distemper virus, 24 h, Table S3, aromatic heterocycles and N-alkylated aminothiazoles, Vero-cSLAM, CDV OP^neon/nLuc, 24 h postinfection, interval in brackets
# [17] = canine distemper virus, BSR-T7, in Mesocricetus auratus, CDV (OP), Bsr-T7 cells (hamster)
# [18] = canine distemper virus, CDV (OP), Vero-cSLAM cells
# [19] = canine distemper virus, MDCK, in Canis lupus familiaris, CDV (OP), MDCK cells (canine)
# [20] = canine distemper virus, Vero, CDV (OP), Vero cells
# [21] = canine distemper virus, in Canis lupus familiaris, CDV (OP), P114 cells (canine)
# [22] = human respiratory syncytial virus, HEp-2, RSV
# [23] = canine distemper virus, 24 h, read-out: IC50 (CDV), Table S5, full list, Vero-cSLAM, CDV OP^neon/nLuc, 24 h postinfection, interval in brackets
# CDV polymerase complex, sequence (P24658 whole entry): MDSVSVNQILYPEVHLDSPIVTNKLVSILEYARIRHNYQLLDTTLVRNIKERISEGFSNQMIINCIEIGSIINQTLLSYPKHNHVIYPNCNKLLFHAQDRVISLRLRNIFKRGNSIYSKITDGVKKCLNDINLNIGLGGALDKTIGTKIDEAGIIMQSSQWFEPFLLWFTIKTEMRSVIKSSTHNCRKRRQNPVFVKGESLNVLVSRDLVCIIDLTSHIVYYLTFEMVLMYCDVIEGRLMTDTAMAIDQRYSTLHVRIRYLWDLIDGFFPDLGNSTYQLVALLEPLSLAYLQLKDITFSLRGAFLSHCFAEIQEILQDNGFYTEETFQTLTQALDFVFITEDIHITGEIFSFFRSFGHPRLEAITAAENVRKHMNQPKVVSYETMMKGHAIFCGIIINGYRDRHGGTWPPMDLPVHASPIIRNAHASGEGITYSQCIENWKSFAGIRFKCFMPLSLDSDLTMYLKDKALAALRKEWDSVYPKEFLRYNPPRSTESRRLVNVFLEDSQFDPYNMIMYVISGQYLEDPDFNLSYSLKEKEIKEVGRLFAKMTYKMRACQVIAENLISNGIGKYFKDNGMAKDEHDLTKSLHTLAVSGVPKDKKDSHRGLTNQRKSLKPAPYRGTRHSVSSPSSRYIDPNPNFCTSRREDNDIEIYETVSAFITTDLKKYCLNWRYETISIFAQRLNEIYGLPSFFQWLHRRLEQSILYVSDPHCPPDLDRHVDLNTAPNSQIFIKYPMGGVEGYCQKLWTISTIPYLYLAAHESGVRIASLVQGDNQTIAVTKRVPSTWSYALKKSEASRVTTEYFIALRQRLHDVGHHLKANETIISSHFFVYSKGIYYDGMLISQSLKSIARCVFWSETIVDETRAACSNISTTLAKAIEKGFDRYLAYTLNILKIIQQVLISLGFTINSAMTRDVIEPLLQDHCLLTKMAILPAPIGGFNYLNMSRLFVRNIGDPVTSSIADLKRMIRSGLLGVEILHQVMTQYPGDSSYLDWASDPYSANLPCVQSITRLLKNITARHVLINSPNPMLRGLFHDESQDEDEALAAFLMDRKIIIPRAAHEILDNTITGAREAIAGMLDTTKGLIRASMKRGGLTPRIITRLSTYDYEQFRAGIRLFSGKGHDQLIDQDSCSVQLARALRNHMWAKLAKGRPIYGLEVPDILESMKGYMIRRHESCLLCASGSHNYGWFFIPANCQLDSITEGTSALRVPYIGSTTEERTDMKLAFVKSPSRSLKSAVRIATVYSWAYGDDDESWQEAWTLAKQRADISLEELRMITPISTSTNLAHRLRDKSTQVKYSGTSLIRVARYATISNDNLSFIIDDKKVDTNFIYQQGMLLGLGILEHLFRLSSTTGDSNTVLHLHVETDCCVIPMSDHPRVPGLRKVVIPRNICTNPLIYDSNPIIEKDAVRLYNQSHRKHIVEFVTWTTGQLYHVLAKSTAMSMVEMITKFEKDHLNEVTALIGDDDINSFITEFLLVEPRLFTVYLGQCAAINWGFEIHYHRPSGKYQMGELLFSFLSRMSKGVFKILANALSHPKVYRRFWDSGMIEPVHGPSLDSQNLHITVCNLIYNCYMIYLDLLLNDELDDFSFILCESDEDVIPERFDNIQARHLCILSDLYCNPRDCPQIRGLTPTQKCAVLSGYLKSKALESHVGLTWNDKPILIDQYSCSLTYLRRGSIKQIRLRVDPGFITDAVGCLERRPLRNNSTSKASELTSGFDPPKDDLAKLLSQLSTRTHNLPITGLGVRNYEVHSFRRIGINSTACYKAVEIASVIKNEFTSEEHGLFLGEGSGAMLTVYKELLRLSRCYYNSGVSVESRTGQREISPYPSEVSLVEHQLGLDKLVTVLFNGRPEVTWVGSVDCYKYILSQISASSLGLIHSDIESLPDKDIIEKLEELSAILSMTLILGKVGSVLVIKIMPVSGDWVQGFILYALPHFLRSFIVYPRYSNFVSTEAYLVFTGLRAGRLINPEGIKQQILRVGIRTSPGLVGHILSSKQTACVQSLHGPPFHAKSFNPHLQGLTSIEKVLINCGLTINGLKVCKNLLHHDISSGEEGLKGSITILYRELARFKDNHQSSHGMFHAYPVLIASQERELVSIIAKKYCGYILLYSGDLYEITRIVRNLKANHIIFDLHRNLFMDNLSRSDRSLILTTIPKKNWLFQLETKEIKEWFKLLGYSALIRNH
# CDV polymerase complex, sequence (P06940 whole entry): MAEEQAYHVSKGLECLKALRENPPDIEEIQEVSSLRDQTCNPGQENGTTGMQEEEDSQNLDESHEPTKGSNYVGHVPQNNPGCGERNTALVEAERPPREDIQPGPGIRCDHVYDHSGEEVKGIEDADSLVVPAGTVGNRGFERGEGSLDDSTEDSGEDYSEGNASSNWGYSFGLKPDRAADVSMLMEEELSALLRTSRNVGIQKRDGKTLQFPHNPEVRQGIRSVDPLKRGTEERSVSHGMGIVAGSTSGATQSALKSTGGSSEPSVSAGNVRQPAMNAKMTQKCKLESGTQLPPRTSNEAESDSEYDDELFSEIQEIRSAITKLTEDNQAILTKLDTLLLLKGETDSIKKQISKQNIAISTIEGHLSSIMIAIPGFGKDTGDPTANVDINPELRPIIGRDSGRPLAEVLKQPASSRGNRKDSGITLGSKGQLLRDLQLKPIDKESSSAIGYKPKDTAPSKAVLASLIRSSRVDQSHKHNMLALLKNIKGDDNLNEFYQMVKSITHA
# membrane-anchored OP-CDV F-protein, sequence (P12569 136-224): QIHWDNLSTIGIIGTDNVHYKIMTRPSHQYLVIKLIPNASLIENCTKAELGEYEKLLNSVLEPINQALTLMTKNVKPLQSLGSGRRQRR
# membrane-anchored OP-CDV F-protein, sequence (P12569 225-662): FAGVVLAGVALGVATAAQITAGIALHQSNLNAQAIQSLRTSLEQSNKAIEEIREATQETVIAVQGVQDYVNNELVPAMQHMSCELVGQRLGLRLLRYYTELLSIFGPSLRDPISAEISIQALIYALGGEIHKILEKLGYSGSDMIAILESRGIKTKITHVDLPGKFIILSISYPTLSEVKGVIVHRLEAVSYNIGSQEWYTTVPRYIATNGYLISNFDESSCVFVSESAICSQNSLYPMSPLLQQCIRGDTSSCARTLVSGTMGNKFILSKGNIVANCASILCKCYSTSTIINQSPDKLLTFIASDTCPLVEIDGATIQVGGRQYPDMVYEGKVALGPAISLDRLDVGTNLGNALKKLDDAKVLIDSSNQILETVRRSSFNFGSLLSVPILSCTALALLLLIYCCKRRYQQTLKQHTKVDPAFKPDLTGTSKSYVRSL
Compound,"IC50 [1, 16] [µM]","IC50 [1, 17] [µM]","IC50 [1, 18] [µM]","IC50 [1, 19] [µM]","IC50 [1, 20] [µM]","IC50 [1, 21] [µM]",IC50 [2] [µM],"IC50 (PIV-5^neon/nLucP; parainfluenza virus 5, Vero) [µM]",IC50 (RSV-GFP; [22]) [µM],CC50 [3] [µM],CC50 [4] [µM],CC50 [5] [µM],CC50 [7] [µM],concentration at which impact on cell cycle progression (G1 arrest) is statistically significant (Vero-cSLAM cells [8]) [µM],CC50 (in vitro) [µM],"IC50 [1, 23] [µM]",effect on minigenome luciferase activity (RdRp complex activity) (CDV polymerase complex),inhibitory activity after 10-fold dilution of virus-compound mixture (virucidal activity) (virions (OP^neon/nLucP)),stabilizing effect on prefusion F-trimers [9],further results
CN(C(=O)COc1cccc2c1OC(C)(C)C2)c1nc2c(s1)CCCC2 [compound 2],0.0084,0.012,0.0026,0.065,0.003,0.019,0.0032,0.015,0.031,52,87,65,51,1,54,–,–,–,–,"IC50 ([1]; Vero-cSLAM, CDV OP^neon/nLuc, luciferase 24 h postinfection): single-digit nanomolar; IC50 (rNiV-EGFP): 0.08 µM; CC50 [6]: 80 µM"
"N#Cc1cccc(NC(=O)Cc2ccccc2)c1 [compound 3, reference compound]",–,–,8,–,–,–,6,–,–,–,–,–,–,–,130,26,luciferase activity remained similar to that for vehicle,still efficiently prevented viral infectivity even after the dilution step,strong stabilizing effect,–
C#CCCCN(C(=O)COc1cccc2c1OC(C)(C)C2)c1nc2ccccc2s1 [compound 23],0.27,–,–,–,–,–,–,–,–,–,–,–,–,–,–,–,–,–,–,–
"Cn1nc(C(F)(F)F)cc1C(=O)Nc1ccc(S(=O)(=O)N2CCCC[C@H]2CCN2CCOCC2)cc1 [ERDRP-0519, reference compound]",–,–,–,–,–,–,–,–,–,–,–,–,–,–,–,–,–,–,–,tolerated dose at the end of adaptation ([10]; stepwise adaptation of A75/17-CDV): ≥ 30 µM
CC1(C)Cc2cccc(OCC(=O)Nc3nc4ccccc4s3)c2O1 [compound 1],–,~7,~0.45,30,0.4,2.6,~0.7,~7,~6,46,99,57,110,30,52,0.53,sufficient to significantly inhibit the luciferase activity,entirely lost its inhibitory activity,did not,"IC50 ([1]; CDV (OP), Bsr-T7 cells (hamster)): 7.3 µM; IC50 ([1]; canine distemper virus, 24 h, Vero-cSLAM, CDV OP^neon/nLuc, luciferase 24 h postinfection): 0.52 µM; IC50 ([1]; canine distemper virus, CDV (OP), Vero-cNectin-4 cells): 0.43 µM; IC50 ([1]; canine distemper virus, read-out: IC50 values, summary for MeV and CDV): 0.2 to 0.7 µM; IC50 (MeV (Edm); NCI-H358): 0.52 µM; IC50 (MeV (Edm); Vero): 0.25 µM; IC50 (MeV (ICB)): 0.37 µM; IC50 (PIV-5^neon/nLucP): 7.2 µM; IC50 (RSV-GFP; RSV): 5.9 µM; antiviral activity against VSV (VSV): did not display any activity; CC50 [11]: 43 µM; CC50 [12]: 50 µM; CC50 [13]: 50 µM; inhibition at 10 µM (CDV polymerase complex; BSR-T7, read-out: inhibition of polymerase activity in the minigenome assay): ~50%; effect on MeV polymerase activity (minigenome) (MeV polymerase complex): inhibition of MeV polymerase activity was recorded; emergence of viral resistance ([10]; 83-day study, four separate replicates): did not induce any detectable viral resistance; time-of-addition inhibition profile (OP^neon/nLucP): acted like ERDRP-0519; effect on membrane fusion activity [14]: enhance fusion activity; CC50 (Vero-cSLAM cells [15]): ~50 µM"
